Results on eleven compounds are retold here after patent US7524885B2, “Compounds that stimulate glucose utilization and methods of use” (The Governors of the University of Alberta, priority 2002, dated 2009).

The conditions of data set [1]: cited from earlier work.
Data set [2] concerns isolated working rat heart. Put plainly: Glucose oxidation in isolated perfused working rat heart ([U-14C]glucose, 14CO2 production). Conditions: isolated working rat heart, read-out: Glucose Oxidation (% above control); for activation at 100 µM: screening concentration 100 μM. Here is the method: Rat hearts were cannulated for isolated working heart 60 minute aerobic perfusions as described in J Pharmacol Exp Ther. 1993; 264:135-144, the entire disclosure of which is incorporated herein by reference.
Male Sprague-Dawley rats (0.3-0.35 kg) were anesthetized with pentobarbital sodium (60 mg/kg IP) and hearts were quickly excised, the aorta was cannulated and a retrograde perfusion at 37° C. was initiated at a hydrostatic pressure of 60 mm Hg. Hearts were trimmed of excess tissue, and the pulmonary artery and the opening to the left atrium were then cannulated. After 15 min of Langendorff perfusion, hearts were switched to the working mode by clamping the aortic inflow line from the Langendorff reservoir and opening the left atrial inflow line. The perfusate was delivered from an oxygenator into the left atrium at a constant preload pressure of 11 mm Hg. Perfusate was ejected from spontaneously beating hearts into a compliance chamber (containing 1 ml of air) and into the aortic outflow line. The afterload was set at a hydrostatic pressure of 80 mm Hg. All working hearts were perfused with Krebs'-Henseleit solution containing calcium 2.5 mmol/L, glucose 5.5 mmol/L, 3% bovine serum albumin (fatty acid free, initial fractionation by heat shock, Sigma), and with 1.2 mmol/L palmitate. Palmitate was bound to the albumin as described in J Bio Chem. 1992; 267:3825-3831, the entire disclosure of which is incorporated herein by reference.
The perfusate was recirculated, and pH was adjusted to 7.4 by bubbling with a mixture containing 95% O2 and 5% CO2.
Spontaneously beating hearts were used in all perfusions. Heart rate and aortic pressure were measured with a Biopac Systems Inc. blood pressure transducer connected to the aortic outflow line. Cardiac output and aortic flow were measured with Transonic T206 ultrasonic flow probes in the preload and afterload lines, respectively. Coronary flow was calculated as the difference between cardiac output and aortic flow. Cardiac work was calculated as the product of systolic pressure and cardiac output.
Measurement of Glucose Oxidation: Glucose oxidation was measured simultaneously by perfusing hearts with [U-^14C] glucose according to the procedures discussed in Saddik M, et al., J Bio Chem. 1992; 267:3825-3831. The entire disclosure of this reference is incorporated herein by reference. The total myocardial ^14CO2 production was determined at 10-min intervals from the 60-min aerobic period. Glucose oxidation rates were determined by quantitative measurement of ^14CO2 production as described in Barbour RL, et al., Biochemistry. 1984; […]. The entire disclosure of this reference is incorporated herein by reference. ^14CO2 production for the control group were compared with the ^14CO2 production for the group treated with cyclopropanecarboxylic acid, 2-[2-(2-methoxy-ethoxy)-ethoxy]-ethyl ester. Results are shown on FIG. 1 and TABLE 2A.
The procedure of Example A for was followed except that cyclobutanecarboxylic acid, 2-[2-(2-methoxy-ethoxy)-ethoxy]-ethyl ester in 1 μM, 10 μM, 100 μM and 1000 μM amounts was added to the buffer in place of the cyclopropanecarboxylic acid, 2-[2-(2-methoxy-ethoxy)-ethoxy]-ethyl ester. The results are illustrated in FIG. 2 and TABLE 2A.
The procedure of Example A was followed except that cyclopropanecarboxylic acid, 2-isopropoxy-ethyl ester in 1 μM, 10 μM, 100 μM and 1000 μM amounts was added to the buffer in place of the cyclopropanecarboxylic acid, 2-[2-(2-methoxy-ethoxy)-ethoxy]-ethyl ester. The results are illustrated in FIG. 3 and TABLE 2A.
The procedure of Example A was followed except that various cyclobutanecarboxylic acid derivatives, cyclopropanecarboxylic acid derivatives and cyclobutanecarboxylic acid in the amounts of 100 μM or 1000 μM was added to the buffer in place of the cyclopropanecarboxylic acid, 2-[2-(2-methoxy-ethoxy)-ethoxy]-ethyl ester.

Like-named read-outs stand apart in the source and are kept apart here.

`O=C(O)C(Cl)Cl` [DCA, dichloroacetate]: the “biological half-life (in words)” value in data set [1] was “short biological half-life”.
On to `O=C(OCCOCCOCCOC(=O)C1CC1)C1CC1` [Compound 21MM074, Cyclopropanecarboxylic acid, 2-[2-(2-cyclopropanecarbonyloxy-ethoxy)-ethoxy]-ethyl ester], for which the activation at 100 µM in data set [2] (Table 2A) amounted to 228%.
For the compound `O=C(O)CNC(=O)C1CCC1` [Compound 2MM055, (Cyclobutanecarbonyl-amino)-acetic acid], the activation at 1000 µM in data set [2] (Table 2A, screening concentration 1000 μM) came to 58%.
Regarding `CC(C)OCCNC(=O)C1CC1` [Compound 24MM077, Cyclopropanecarboxylic acid (2-isopropoxy-ethyl)-amide], in data set [2] (Table 2A), the activation at 100 µM is 217%.
For the compound `CCOCCOC(=O)C1(C(=O)OCCOCC)CC1` [Compound 31MM084, Cyclopropane-1,1-dicarboylic acid bis-(2-ethoxy-ethyl) ester], the activation at 100 µM in data set [2] (Table 2B) was determined as 197%.
On to `O=C(OCCOC(=O)C1CC1)C1CC1` [Compound 45MM098, Cyclopropanecarboxylic acid 2-cyclopropanecarbonyloxy-ethyl ester], for which the activation at 100 µM in data set [2] (Table 2B) was found to be 358%.
For `CC(C)OCCOC(=O)C1CC1` [Compound 17MM070, Cyclopropanecarboxylic acid 2-isopropoxy-ethyl ester], the activation at 100 µM in data set [2] (Table 2A) worked out at 208%.
In the case of `O=C(OCC1COc2ccccc2O1)C1CC1` (centres unmarked) [Compound 41MM094, Cyclopropanecarboxylic acid 2,3-dihydro-benzo(1,4)dioxin-2-ylmethyl ester], the activation at 100 µM in data set [2] (Table 2B) was 389%.
As for `O=C(OCCOCCOC(=O)C1CC1)C1CC1` [Compound 19MM072, Cyclopropanecarboxylic acid, 2-(2-cyclopropanecarbonyloxy-ethoxy)-ethyl ester], the activation at 100 µM in data set [2] (Table 2A) is 97%.
Still for that read-out and setting: the same measure for `COCCOCCOC(=O)C1CC1` [Compound 13MM066, Cyclopropanecarboxylic acid 2-(2-methoxy-ethoxy)-ethyl ester]: 20%.
Still for that read-out and setting: under `CCOCCOC(=O)C1CCC1` [Compound 16MM069, Cyclobutanecarboxylic acid 2-ethoxy-ethyl ester] stands 162%.
